Columns and labels:
[1] = Pharmacokinetics and tissue distribution after single-dose iv injection in mice; format: in vivo; details: iv ~10 mg/kg; for Tissue distribution profile, levels in organs: 24 h after injection; for Crossing of the blood-brain barrier: brain tissue (FIG. 4), 10 mg/kg
Protocol: FIG. 4: Tissue distribution of ferrostatin-analogues. Equimolar amounts of Ferrostatin (Fer-1), compound 39 (depicted as UAMC-3203) and compound 38 (depicted as UAMC-3206) (˜10 mg/kg) were injected intravenously 2 h (left panel) or 24 h (right panel) before tissue collection (heart, liver, lung, muscle, kidney and brain). Tissues were collected, snap frozen in liquid nitrogen, homogenized and stored at −80° C. until analysis. The tissue samples for LC-MS were further processed by protein precipitation by diluting 20 μL of the homogenate with 80 μL ACN containing IS (tolbutamide). After centrifugation, the supernatant was further diluted in the appropriate solvent.
The detected levels of UAMC-3203 vary between 3-60 ng/mg tissue depending on the organ, which is up to […] or 6-fold higher than the dose injected.

[2] = Plasma stability, rat plasma; format: in vitro ADME; details: 37° C., remaining parent compound, read-out: Plasma stability (% recovery after 6 h), Rat
Protocol: 5 μl of a 10 mM stock solution of the compound in DMSO was added to 995 μl of plasma to obtain a 50 μM final solution. The mixture was gently shaken for 6 h at 37° C. Aliquots of 100 μl were taken at various time points (0, 0.5 h, 1 h, 2 h, 3 h and 6 h) and diluted with 400 μl of cold methanol (stored at 4° C.). The suspension was centrifuged at 14000 rpm for 5 min. 50 μl of the supernatant was diluted with 950 μl of methanol and analysed with LC/MS/MS. The samples were analysed in triplicate. The experiment was done in duplicate. […] Enalapril maleate was used as a control in mice, rats, and in human.

[3] = Microsomal (metabolic) stability, mouse liver microsomes; details: pH 7.4
Description: By using the measured microsomal in vitro t1/2, a calculated value for the intrinsic clearance Clint can be determined. This value states the measure in which a drug that is not bound to plasma proteins is irreversibly removed from the body by the liver. This value is expressed in mL/min/kg which can be interpreted as the volume of blood in mL that is cleared of a drug per minute per kilogram of body weight. The CLint is less sensitive to used variables in ADME assays since the amount of microsomal protein and the volume of the incubation are all taken into account. (Sohlenius-Sternbeck et al., Xenobiotica, 2012, 42, 841-853)
Liver microsomes (20 mg protein/ml), NADPH regenerating system solutions A & B and 5 mM stock compound solution (100% DMSO) are prepared. The reaction mixture finally contains 713 μL purified water, 200 μL 0.5 M potassium phosphate pH 7.4, 50 μL NADPH regenerating system solution A (BD Biosciences Cat. No. 451220), 10 μL NADPH regenerating system solution B (BD Biosciences Cat. No. 451200) and 2 μL of the compound stock solution (10 μM final concentration). The reaction mixture is warmed to 37° C. for 5 minutes in a water bath and the reaction is initiated by addition of 25 μL of liver microsomes (0.5 mg protein/ml final concentration). At different time points (0 min-15 min-30 min-60 min-120 min-240 min-360 min-24 h), 20 μL is withdrawn and 80 μL cold acetonitrile is added on ice for 10 minutes. Then the mixtures are centrifuged at 13 000 rpm for 5 min at 4° C. The supernatant is further diluted in 90% water/MeCN (1/25) to fall within the range of the LC/MS/MS analysis. At each time point, the compound is analysed using LC/MS/MS with the same UPLC system as described above. A standard curve of six points was made to fit the measured concentrations. Verapamil was used as a positive control.
All obtained readouts were processed using Microsoft Excel. In order to determine the microsomal half-life t1/2 of the compounds, the rate constant k was determined by plotting the exponential decay graphs using GraFit. Microsomal t1/2 was determined using the following formula: […]

[4] = tested on: IMR-32 Neuroblastoma cells; experiment: Erastin-induced ferroptosis in IMR-32 neuroblastoma cells (Sytox Green cell death readout); format: cell-based; details: Homo sapiens; IMR-32 cells, 10 μM erastin, compounds 1 nM to 1 μM, triplicate; read-out: IC50, antiferroptotic activity in response to erastin-induced ferroptosis
Protocol: In the present invention the potency of a compound inhibiting (or reducing) ferroptosis and/or oxytosis are determined in in vitro or in vivo assays. Typically in vitro assays are used to measure the potency of a candidate compound. Examples of suitable in vitro assays are cellular assays. One non-limiting example of an assay involves the use of the IMR-32 neuroblastoma cell line. The latter is stimulated to enter into ferroptosis upon stimulation with 10 μM erastin, a documented ferroptosis inducer (see for example Dixon et al (2012) Cell 149, 1060-1072 and ferroptosis inhibitors are evaluated for the prevention of erastin induced ferroptosis. Yet another assay is based the glutamate-induced cell death in the hippocampal cell line HT22 and ferroptosis/oxytosis inhibitors are evaluated for the prevention of cell death (see Henke N. et al (2013) Cell Death and Disease 4, e470). Still another assay is based on the sorafinib induced cell death (described to be iron dependent cell death) in hepatocellular carcinoma cells and ferroptosis inhibitors are evaluated for the prevention of cell death (see Louandre C. et al (2013) Int. J. Cancer 133, 1732). The calculated potency of a compound inhibiting ferroptosis and/or oxytosis is typically depicted as an IC50 value. Examples of suitable in vivo assays are typically pre-clinical disease models of for example mice for the diseases benefiting the application of ferroptosis and/or oxytosis inhibitors, as described herein. One non-limiting example of an in vivo assay is based on inducing liver damage in mice by administering the herbicide diquat dibromide monohydrate and ferroptosis inhibitors are evaluated based on reduced levels of liver transaminases in serum (see Ran Q et al (2004) J. Biol. Chem. 279, 53, 55137).
The IC50 values for the individual compounds of the invention were determined in the neuroblastoma, IMR-32 cell line. In brief, IMR-32 cells were subjected to 10 μM erastin, the latter compound is known to induce ferroptosis. A concentration gradient (ranging from 1 nM to 1 μM) of the compounds was applied to the cells. These experiments were performed in a 96-well format (in triplicate), and cell death was analyzed in a fluorescent plate reader by use of a fluorescent cell death dye (1.5 μM Sytox Green). The IC50 values depicted in Table 1 are the concentration values for the individual compounds which are able to overcome ferroptosis.

Compound	Tissue distribution profile, levels in organs [1]	recovery at 6 h, 50 μM [2] [%]	CLint scaled at 10 µM ([3]; liver microsomes) [mL/min/kg]	half-life at 10 µM ([3]; liver microsomes) [h]	IC50 [4] [nM]	half-life at 10 µM ([3]; microsomes) [h]	Tissue distribution profile compared to -3206 and benchmark Fer-1 ([1]; 2 h after injection)	Crossing of the blood-brain barrier ([1]; Hydrochloride)	Crossing of the blood-brain barrier ([1]; listed as UAMC-3203, Hydrochloride)	concentration at 2 h ([1]; mouse, tissues (heart, liver, lung, muscle, kidney, brain), 2 h after injection, read-out: Detected levels in tissue depending on the organ) [ng/g]
CNCCNS(=O)(=O)c1ccc(NC2CCCCC2)c(NCc2ccccc2)c1.Cl [Compound 37, 3-(benzylamino)-4-(cyclohexylamino)-N-(2-(methylamino)ethyl)benzenesulfonamide Hydrochloride]	not detected in any organ	65.8	139 ± 6.2	0.45 ± 0.02	3	–	–	–	–	–
Cl.NCCNS(=O)(=O)c1ccc(NC2CCCCC2)c(NCc2ccccc2)c1 [Compound 38, N-(2-aminoethyl)-3-(benzylamino)-4-(cyclohexylamino)benzenesulfonamide Hydrochloride]	detected in very low levels	100	4.8 ± 1.5	–	12	13	–	–	–	–
Cl.O=S(=O)(NCCN1CCNCC1)c1ccc(NC2CCCCC2)c(NCc2ccccc2)c1 [Compound 39, 3-(benzylamino)-4-(cyclohexylamino)-N-(2-(piperazin-1-yl)ethyl)benzenesulfonamide Hydrochloride]	still present in range of 2- to 100-fold less than the dose injected	85.8	18 ± 7.1	–	10	3.46	superior profile	efficiently crosses the blood brain barrier	seems to cross the blood-brain barrier	3000 to 60000
